Publication PMC6588697, “Lugdunin amplifies innate immune responses in the skin in synergy with host- and microbiota-derived factors” (Nature Communications, 2019)
Values joined by “and” are separate entries in the source; they are usually repeats but may differ in a detail not shown here. Equal values may be shown once.

Legend:
Format in all cases: cell-based, human
HNEpCs = experiment: CXCL8 expression in HNEpCs (qRT-PCR); conditions: 5 h, two technical replicates
Experimental: Quantitative reverse transcription-polymerase chain reaction (qRT-PCR) was performed in 10 µL reaction volume with SYBR^TM Green PCR Master Mix (Thermo Fisher) according to the manufacturer’s instructions using a LightCycler 96 (Roche Life Science). The initial denaturation step was at 95 °C for 5 min, followed by 40 cycles with 10 s each for the denaturation step at 95 °C, the annealing at individual temperature, and the elongation at 72 °C. Primer sequences and respective annealing temperatures are listed in Supplementary Table 1. […]
(§1) 31 g+h+i: HNEpCs (b), HTEpCs (c) or PBMCs (d) were treated with increasing
(§2) 32 concentrations of lugdunin (grey bars) or 100 ng/mL Pam2Cys or Pam3Cys (white
(§3) 33 bars) as positive controls for 5 hours and subsequently expression of CXCL8 was
(§4) 34 analyzed and normalized to actin. Black bar: medium control. Shown is one
(§5) 35 representative experiment of three independent experiments with two technical
(§6) 36 replicates +/-s.e.m. Significant differences to control treatments were analyzed by
(§7) 37 ordinary one-way ANOVA followed by Dunnett’s multiple comparisons test (*P<0.05; […]

PBMCs = experiment: CXCL8 expression in PBMCs (qRT-PCR); conditions: 5 h, two technical replicates
Experimental: Quantitative reverse transcription-polymerase chain reaction (qRT-PCR) was performed in 10 µL reaction volume with SYBR^TM Green PCR Master Mix (Thermo Fisher) according to the manufacturer’s instructions using a LightCycler 96 (Roche Life Science). The initial denaturation step was at 95 °C for 5 min, followed by 40 cycles with 10 s each for the denaturation step at 95 °C, the annealing at individual temperature, and the elongation at 72 °C. Primer sequences and respective annealing temperatures are listed in Supplementary Table 1.
Human PBMCs were isolated from the peripheral blood of healthy donors upon obtaining informed consent by Ficoll-Histopaque (Biochrom) gradient centrifugation. Cells were washed once in PBS and adjusted to a cell number of 1 × 10^6 mL^−1 in RPMI-1640 medium (Gibco/Life Technologies) containing 10% FBS (Biochrom/Merck Millipore). […]
as §1, §2, §3, §4, §5, §6, §7

PHKs = experiment: Cytokine release into PHK supernatant (LEGENDplex / ELISA); conditions: 5 h, lugdunin 2 µM or Pam2Cys 100 ng/mL, two technical replicates
Experimental: Fig. 1 Lugdunin sensitizes epithelial cells for innate immune defense. a Primary human keratinocytes (PHKs) were pretreated with S. epidermidis conditioned medium (CM), indicated lugdunin concentrations, or the combination of both for 20 h. Subsequently, cells were infected with S. aureus for 1.5 h followed by cell lysis and determination of colony-forming units (CFUs). Shown is one representative experiment of three independent experiments with six technical replicates ± s.e.m. n.s., not significant. b Dorsal skin of mice was pretreated with S. epidermidis CM, 1.5 µg lugdunin alone or in combination with S. epidermidis CM for 24 h. Subsequently, S. aureus CFUs were determined. Horizontal lines represent the mean of each group ± s.e.m. c PHKs were treated with 2 μM lugdunin or with S. epidermidis CM alone or in combination for 20 h and subsequently expression of indicated antimicrobial peptides (AMPs) (respective protein names in brackets) was analyzed and normalized to actin. Shown is one representative experiment of three independent experiments with two technical replicates ± s.e.m. d PHKs were treated with 2 µM lugdunin or 100 ng/mL Pam2Cys for 5 h and subsequently the concentration of indicated cytokines in the supernatant was analyzed by LEGENDplex^TM (BioLegend). Shown is one representative experiment of three independent experiments with two technical replicates ± s.e.m. e PHKs were treated with increasing concentrations of lugdunin or 100 ng/mL Pam2Cys or Pam3Cys for 5 h and subsequently expression of chemokine (C-X-C motif) ligand 8 (CXCL8) was analyzed and normalized to actin. Shown is one representative experiment of three independent experiments, each with two technical replicates ± s.e.m. f, g Indicated cells were treated with 2 µM lugdunin or 100 ng/mL Pam2Cys as a positive control for 5 h and subsequently the concentration of CXCL8 (f) and interleukin-1α (IL-1α) (g) in the supernatant was analyzed by LEGENDplex^TM (BioLegend) and enzyme-linked immunosorbent assay (ELISA) (R&D Systems). Shown is one representative experiment of three independent experiments with two technical replicates ± s.e.m. Significant differences to control treatments were analyzed by ordinary one-way analysis of variance (ANOVA) followed by Dunnett’s multiple comparisons test (*P < 0.05; **P < 0.01; ***P < 0.001; ****P < 0.0001). n.d. = not detected. Source data are provided as a Source Data file
For cytokine analysis from cell cultures, 10 µL of supernatant was used for cytokine analysis via the LEGENDplex^TM human inflammation panel (BioLegend). For cytokine analysis from mouse skin, 4 mm skin punches were cultured in an airlift system where only the dermis had access to medium for 10 h. Skin punches were cultured in RPMI containing 1% FCS (Biochrom/Merck Millipore), 1% penicillin and streptomycin (Gibco/Life Technologies) and 0.25 µg/mL amphotericin B (CELLnTEC). Ten microliters of a 3-fold dilution of culture supernatant was used for cytokine analysis via the LEGENDplex^TM mouse inflammation panel (BioLegend). Samples were acquired in duplicates using a BD LSRII flow cytometer (BD Biosciences) and LEGENDplex^TM Software (BioLegend).
For IL-1α analysis, 100 µL of cell culture supernatant was analyzed via ELISA (R&D Systems) according to manufacturer’s instruction. For MIP-2 analysis, 100 µL of a 5-fold dilution from skin cultures supernatant was used and analyzed via ELISA (R&D Systems) according to the manufacturer’s instruction. For LL-37 ELISA, ELISA plates (Nunc) were coated overnight at 4 °C with 100 µL of cell culture supernatant or 2-fold dilutions of LL-37 starting from 8 µg/mL. The next day, the plate was washed three times using PBS + 0.5% BSA + 0.05% Triton X-100, followed by incubation with 100 µL primary antibody against hCAP18/LL-37 (HycultBiotech, Cat#HM2071, 1:120 in PBS + 0.5% BSA + 0.05% Triton X-100) at 37 °C for 1 h. […]

Lugdunin was tested. Which CXCL8 fold induction (HNEpCs; lugdunin 0.5 µM, sheet Supp Fig 1f) did it give?
Its CXCL8 fold induction is 2.151 and 2.454.

What about the CXCL8 fold induction (HNEpCs; lugdunin 1 µM) of the same substance?
The CXCL8 fold induction was 2.621.

What about the CXCL8 fold induction (HNEpCs; lugdunin 2 µM) of the same substance?
The CXCL8 fold induction was 6.148 and 8.056.

What about the CXCL8 fold induction (HNEpCs; lugdunin 3 µM) of the same substance?
The CXCL8 fold induction was 5.836 and 8.253.

What about the CXCL8 fold induction (HNEpCs; lugdunin 5 µM) of the same substance?
Its CXCL8 fold induction is 4.724 and 6.453.

What about the CXCL8 fold induction (HNEpCs; lugdunin 10 µM) of the same substance?
The CXCL8 fold induction was 1.659 and 2.014.

And the CXCL8 fold induction (PBMCs; lugdunin 0.5 µM, sheet Supp Fig 1h)?
Its CXCL8 fold induction is 0.8179 and 0.8236.

What about the CXCL8 fold induction (PBMCs; lugdunin 1 µM) of the same substance?
The CXCL8 fold induction was 1.223 and 1.275.

And the CXCL8 fold induction (PBMCs; lugdunin 2 µM)?
The CXCL8 fold induction was 2.085 and 1.84.

What about the CXCL8 fold induction (PBMCs; lugdunin 3 µM) of the same substance?
The CXCL8 fold induction was 2.121 and 2.305.

What about the CXCL8 fold induction (PBMCs; lugdunin 5 µM) of the same substance?
Its CXCL8 fold induction is 3.021 and 3.221.

What about the CXCL8 fold induction (PBMCs; lugdunin 10 µM) of the same substance?
The CXCL8 fold induction was 3.494 and 3.593.

And the “CXCL8 concentration in supernatant” value (PHKs; LEGENDplex, Fig 1d)?
The value was 62.009 and 63.022.

And the “CXCL8 concentration in supernatant” value (PHKs; Fig 1f)?
Its value is 186.026 and 189.663.

And the “IFN concentration in supernatant (first line IFN, r44)” value (PHKs; Fig 1d)?
The value was 0.000.

What about the “IFN concentration in supernatant (second line IFN, r45)” value (PHKs; Fig 1d) of the same substance?
Its value is 0.000.

And the “IL-1 concentration in supernatant (first line IL-1, r43)” value (PHKs; Fig 1d)?
The value was 0.000.

What about the “IL-1 concentration in supernatant (second line IL-1, r47)” value (PHKs; Fig 1d) of the same substance?
The value was 0.000.

What about the “IL-6 concentration in supernatant” value (PHKs; Fig 1d) of the same substance?
Its value is 0.000.

What about the “IL-10 concentration in supernatant” value (PHKs; Fig 1d) of the same substance?
Its value is 0.000.

And the “IL-12p70 concentration in supernatant” value (PHKs; Fig 1d)?
Its value is 0.000.

What about the “IL-18 concentration in supernatant” value (PHKs; Fig 1d) of the same substance?
Its value is 0.000.

And the “IL-23 concentration in supernatant” value (PHKs; Fig 1d)?
Its value is 0.000.

And the “IL-33 concentration in supernatant” value (PHKs; Fig 1d)?
The value was 0.000.

And the “MCP-1 concentration in supernatant” value (PHKs; Fig 1d)?
The value was 219.647 and 222.665.

And the “TNF concentration in supernatant” value (PHKs; Fig 1d)?
Its value is 0.000.
